PMC12040169 (PLOS Biology, 2025)

Assay: in vitro
Conditions: human, hela cells, % viability

SMILES | viability at 28.5 h, 10 µM [%]
COc1ccc(CCNc2ccc(C(F)(F)F)cc2[N+](=O)[O-])cc1OC [CBK074656] | 87.4
O=C(NCc1nnc(-c2cccs2)o1)c1cccc2ccccc12 [CBK284636] | 82.1
CN1C[C@@H](C(=O)NC(C)(C)C)[C@@]2(CCc3ccccc3C(=O)N2)C1 [CBK284796] | 99
CN(C)c1ccc(-c2nccnc2NS(=O)(=O)Cc2cccc(Cl)c2)cc1 [CBK050787] | 102
CC(=O)N1CCC(C(=O)Nc2cnc(-c3ccc(F)c(Cl)c3)c(-c3cccnc3)n2)CC1 [CBK036719] | 108
Cc1n[nH]c2c1CN(Cc1nc(C)c(C)n1C)CC2 [CBK307456] | 84.7
NC(Cc1ccccc1)CN(CC1(c2ccc(Cl)cc2)CC1)C(=O)Nc1ccc2c(c1)OCO2 (stereo not drawn) [CBK002342C] | 76.1
CC(C)(C)OC(=O)N1CCC(COc2ccc(-c3ccncc3)cn2)CC1 [CBK161777] | 91.8
CN(C)C(=O)c1cc(-c2cccc(N(C)C)c2)cnc1NCC1CC1 [CBK076333] | 85.1
O=C1CC(c2ccc(S(=O)(=O)NCc3ccccc3)cc2)CN1 (stereo not drawn) [CBK270155] | 87.5
S=C(NCc1ccc(-n2cccn2)cc1)NCC1CCCO1 (stereo not drawn) [CBK267083] | 96.7
CCC(C)(C)c1ccc(S(=O)(=O)N2CCN(Cc3ccc(C(C)=O)cc3)CC2)cc1 [CBK062826] | 95.1
COc1cnc(/C=C\c2ccccc2)c(NC(=O)c2cc(C)oc2C)n1 [CBK145222] | 95.1
O=C(NC1CC2(CCCC2)Oc2ccccc21)C1CCCO1 (stereo not drawn) [CBK282420] | 110
O=C(NCc1ccc(Cl)cc1)N1CCCC(CO)C1 (stereo not drawn) [CBK156053] | 96.6
COc1ccc(C(=O)Nc2ccc(C3c4ccsc4CCN3C(C)=O)cc2)cc1 (stereo not drawn) [CBK286465] | 85
O=C(NC1CC1)c1ccc(-c2cnc3[nH]c(=O)n(-c4ccc5[nH]ccc5c4)c3n2)cc1 [CBK064916] | 103
CC(=O)Nc1cccc(C(=O)NC2CC(=O)N(C3CCCCCC3)C2)c1 (stereo not drawn) [CBK307455] | 102
COc1ccc2[nH]c(=O)c(CN(CCCN3CCOCC3)C(=O)Nc3cccc(Cl)c3)cc2c1 [CBK135402] | 96.8
Cc1ccccc1C(c1ncccc1C)N(C)C(=O)C1CCN(Cc2ccc(Cl)c(Cl)c2)CC1 (stereo not drawn) [CBK148366] | 92.2
COc1ccc(N2C(=O)CC(n3c(CCCCO)nc4ccccc43)C2=O)cc1 (stereo not drawn) [CBK268895] | 107
CCn1ncc(CN2CCC(c3onc4c3CCCC4)CC2)c1C [CBK284576] | 90.2

SMILES | viability at 28.5 h, 10 µM [%]
CCCCCCN1CCC2CN(CCCC(=O)c3ccc(F)cc3)CCN2C1=O (stereo not drawn) [CBK024890C] | 99
Cc1cc(/C=C(/C#N)c2nc3ccccc3[nH]2)c(C)n1-c1ccc(S(N)(=O)=O)cc1 [CBK264769] | 77.8
O=C(c1ccc2ccccc2n1)N1CCC(Cc2ccccc2)CC1 [CBK200184] | 96.4
OC(CN1CCC(O)(c2ccccc2F)CC1)c1ccccc1 (stereo not drawn) [CBK282490] | 107
O=C(NCCc1ccc(O)cc1)C1(c2ccccc2)CCCC1 [CBK149535] | 84.9
COc1ccc(C(C)C)cc1-c1cnc2[nH]c(=O)n([C@H](CO)C(C)C)c2n1 [CBK064962] | 96.2
O=C(NCCc1nc2cccnc2n1-c1ccccc1)c1ccncc1 [CBK288599] | 90.7
Cc1ccc2c(c1)cc(C)c1nn(CC(=O)NC(C)(C)C)c(=O)n12 [CBK283875] | 87.5
Cc1ccc(CN[C@@H]2CCC(=O)N[C@H]2c2cc(F)cc(F)c2)o1 [CBK283128] | 97.9
CCOC(=O)c1cnn2c(C)cc(C)nc12 [CBK101119] | 103
CCOC(=O)C(CO)NC(=O)c1cncc(Br)c1 (stereo not drawn) [CBK263926] | 83.8
Oc1ccc2[nH]c3c(c2c1)CCNC31CCN(CCOc2ccccc2)C1 (stereo not drawn) [CBK081496] | 85.9
CC(=O)N[C@@H](C(=O)N1CC[C@@H]2NC(=O)[C@@H](Cc3ccccc3)NC(=O)C3(C/C=C/C[C@H]2C1)CCOCC3)C(C)C [CBK292198] | 97.1
FC(F)(F)c1ccc(CN2CCCC3(C2)NCCc2c3[nH]c3ccccc23)cc1 (stereo not drawn) [CBK040095] | 94.2
Cc1c(C)n(C)c2nc(N3CCCC3)nc(N3CCCC3)c12 [CBK016683C] | 90.1
Cn1c(=O)c2c(ncn2CC(=O)Nc2cccc(Br)c2)n(C)c1=O [CBK133287] | 90.7
CCc1nnc(NS(=O)(=O)c2ccc(NCc3cc(Cl)ccc3O)cc2)s1 [CBK200051] | 100
CC(Sc1nc2ccc(F)cc2c(=O)[nH]1)C(=O)N1CCOCC1 (stereo not drawn) [CBK305958] | 108
CN1CCN(CCP(=O)(c2ccccc2)c2ccccc2)CC1 [CBK020260] | 94.1
Cc1ccccc1C(=O)Nc1ccc(S(=O)(=O)Nc2nccs2)cc1 [CBK086797] | 89.4
O=C(Cc1ccccc1C(=O)O)Nc1ccc(-n2cncn2)c(Cl)c1 [CBK286756] | 85.7
O=C(CCC1CCCCC1)N1CCC(c2n[nH]cc2C(=O)N2CCc3ccccc3C2)CC1 [CBK286271] | 95.4

SMILES | viability at 28.5 h, 10 µM [%]
COc1ccc2c(Cl)c(C(=O)NCCc3ccc(S(N)(=O)=O)cc3)sc2c1 [CBK268120] | 104
Cc1nonc1NC(=O)CSc1nc2cc(Cl)ccc2[nH]1 [CBK270095] | 84.8
Cc1cc(C(C)NC(=O)C2CCCN(S(C)(=O)=O)C2)c(C)s1 (stereo not drawn) [CBK305464] | 98.4
CCn1cc(C(=O)O)c(=O)c2cc(F)c(N3CCN(C(=O)c4ccc(C)cc4)CC3)cc21 [CBK286986] | 99.6
CCCNc1cc(C)nc2cc(-c3ccc(OC)c(OC)c3)nn12 [CBK287805] | 88.2
CCN1C(=O)c2ccccc2C(=O)[C@@]2(C)CN(CC(C)C)C[C@@H]12 [CBK283479] | 102
CCNC(=O)N1CC2(CCN(Cc3ccc(OC(F)(F)F)cc3)CC2)c2ccccc21 [CBK126688] | 115
CCOC(=O)CSC/C(=N/Nc1ccccc1)c1cccs1 [CBK006956] | 102
CC(C)NC(=O)CN1C(=O)N2CCCN=C2c2ccc(Cl)cc21 [CBK284390] | 96.5
CCOC(=O)N1CCN(C2CCCN(Cc3cnc(N(C)C)s3)C2)CC1 (stereo not drawn) [CBK307041] | 93.7
O=C(CC1OCCc2ccsc21)N1CCCC(n2cccn2)C1 (stereo not drawn) [CBK305154] | 96.7
Cc1cn(CC(=O)N2CCCC3(CCN(C(=O)c4ccoc4)C3)C2)c(=O)[nH]c1=O (stereo not drawn) [CBK131634] | 104
CS(=O)(=O)CS(=O)(=O)C1=C(N2CCOCC2)C2CCN1CC2 [CBK019499] | 87.5
Nc1nn(S(=O)(=O)c2cccc3nsnc23)cc1-c1ccc(Br)cc1 [CBK268975] | 107
CC1CCN(Cc2ccc(-c3nnn(CC(=O)NCc4ccc(C(F)(F)F)cn4)n3)cc2)CC1 [CBK149722T] | 104
CCCCNc1cc(N2CCN(C(=O)COC)CC2)nc(N)n1 [CBK304078] | 98.8
CC(=O)N1CCN(c2cncc(-c3ccc(O)cc3)n2)CC1 [CBK126948T] | 88.9
COCOc1ccc(-c2ncc(OCc3ccc4c(c3)OCO4)nc2N)cc1 [CBK145101] | 100
Cc1cc(C)nc(N2CCN(C(=O)CCC(=O)NCc3cccc(C(F)(F)F)c3)CC2)n1 [CBK022261] | 107
CCOC1CCCN(C(=O)c2cccnc2Nc2cccc(F)c2)C1 (stereo not drawn) [CBK305307] | 86.9
CN(C)S(=O)(=O)c1ccc(Cl)c(C(=O)Nc2ccc(C(=O)O)cc2)c1 [CBK265728] | 94.7
COc1ccccc1NC(=O)C(c1ccccc1)N1CCOCC1 (stereo not drawn) [CBK269561] | 107

SMILES | viability at 28.5 h, 10 µM [%]
O=C(CCC1COc2ccccc2O1)N1CCN(Cc2ccccc2)CC1 (stereo not drawn) [CBK269767] | 93.7
Cc1nc(-c2ccsc2)sc1C(=O)NC1CCCN(c2ncccn2)C1 (stereo not drawn) [CBK305632] | 87.6
O=C1NC2(CCc3ccccc31)CCN(C/C=C/c1cccnc1)C2 (stereo not drawn) [CBK284622] | 86.2
CCc1ccc(C(O)CNC2CCN(CCOC)CC2)cc1 (stereo not drawn) [CBK304259] | 104
CN1CC(CO)Oc2ccccc21 (stereo not drawn) [CBK003872C] | 104
CN1C(=O)COc2ccccc2CCCC[C@@H]2[C@H]1CCCN2C(=O)CCn1ccnc1 [CBK292150] | 96.6
c1ccc(CNc2nnc(-c3ccccc3)s2)cc1 [CBK074928] | 87.7
Cn1c(=O)c2c(nc(CN3CCCCC3)n2CCCc2ccccc2)n(C)c1=O [CBK269521] | 96.5
COc1cc(Nc2cncc(-c3cccc(F)c3)n2)cc(OC)c1OC [CBK065272] | 93
Cn1cnnc1SCCNC(=O)N1CCCN(Cc2cccs2)CC1 [CBK307485] | 94
CC[C@H]1CN(C(=O)c2cccnc2)CC[C@H]1CC(=O)NCc1ccc2c(c1)OCO2 [CBK288771] | 87.7
O=S(=O)(Nc1nccnc1-c1cccs1)C1CC1 [CBK050764] | 93.9
CC1CCC(C(C)C)C(OCC(O)CN2CCN(C)CC2)C1 (stereo not drawn) [CBK278213C] | 105
O=C(NCC(F)(F)F)c1ccc(-c2ccccc2)nc1NCc1cccnc1 [CBK076551] | 95
COc1ccc([C@H]2CN(C(=O)c3ccccc3)[C@@H]3CCN(Cc4cccs4)C[C@H]23)cc1 [CBK285582] | 103
CC(=O)N1CC2(CCCC2)c2c(F)cccc21 [CBK306339] | 78.2
Cc1ccc(S(=O)(=O)Nc2nc(C)c(NC(=O)Nc3ccc(Cl)cc3Cl)s2)cc1 [CBK264982] | 85.8
C=C1S/C(=N\c2cc(Cl)cc(Cl)c2)NC1(CC)CC [CBK009484] | 109
CC(C)CCNC(=O)N1CCN(c2ccccc2)CC1 [CBK155203] | 101
O=C(C1CCC1)N1CCC(c2nc(C3CCCC3)no2)C1 (stereo not drawn) [CBK285434] | 88.1

Same assay, conditions: human, hela cells, % viability, bulk resorufin, single well

SMILES | viability at 28.5 h, 10 µM [%]
CN1C(=O)C(=CNCCCC(=O)O)C(=O)N(C)C1=O [CBK264420] | 90.4
